Here are results for two molecules from PMC12080319 (The Plant Journal, 2025).

Usually Kd stands for the free concentration of one partner at which half of the binding sites on the other are occupied at equilibrium, for simple one-to-one binding. Read a low Kd as tighter binding.

Holding throughout (experiment): microscale thermophoresis
Assay type in all cases: binding
(In general: Microscale thermophoresis detects binding through changes in fluorescence in a small temperature gradient.)

The target of assay [1] is T1, OsNAT9 (OsNAT9-GFP) (Oryza sativa, UniProt Q10ET9, E346A).
T1 sequence (Q10ET9 1-527 E346A): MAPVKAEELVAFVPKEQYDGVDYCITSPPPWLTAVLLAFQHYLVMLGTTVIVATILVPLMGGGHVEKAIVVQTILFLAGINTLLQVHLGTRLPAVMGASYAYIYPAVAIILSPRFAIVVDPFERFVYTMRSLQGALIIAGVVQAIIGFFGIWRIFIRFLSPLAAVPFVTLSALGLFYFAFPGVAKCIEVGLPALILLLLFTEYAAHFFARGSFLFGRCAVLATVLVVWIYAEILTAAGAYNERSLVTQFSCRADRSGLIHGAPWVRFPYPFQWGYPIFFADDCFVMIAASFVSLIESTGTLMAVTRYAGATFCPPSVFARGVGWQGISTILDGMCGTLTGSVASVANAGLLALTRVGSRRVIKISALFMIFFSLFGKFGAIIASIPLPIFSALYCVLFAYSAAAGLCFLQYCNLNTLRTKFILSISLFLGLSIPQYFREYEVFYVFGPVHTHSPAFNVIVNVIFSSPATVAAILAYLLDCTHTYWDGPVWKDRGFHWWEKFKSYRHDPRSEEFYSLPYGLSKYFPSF

For assay [2], the target named is T2, OsNAT9 (OsNAT9-GFP) (Oryza sativa, UniProt Q10ET9).
T2 sequence (Q10ET9 1-527): T1 sequence (Q10ET9 1-527 E346A) with A346E

Assay [3] concerns the target T3, OsNAT9 (OsNAT9-GFP) (Oryza sativa, UniProt Q10ET9, S344A).
T3 sequence (Q10ET9 1-527 S344A): T1 sequence (Q10ET9 1-527 E346A) with S344A, A346E

For assay [4], the target named is T4, OsNAT9 (OsNAT9-GFP) (Oryza sativa, UniProt Q10ET9, G349A).
T4 sequence (Q10ET9 1-527 G349A): T1 sequence (Q10ET9 1-527 E346A) with A346E, G349A

Residue numbers refer to the chain shown, from its start.

As to `O=C1O[C@H]([C@@H](O)CO)C(O)=C1O` [AsA, ascorbic acid], the Kd is 80700 ± 6060 pM at OsNAT9 (OsNAT9-GFP) [1], 280 ± 230 pM on OsNAT9 (OsNAT9-GFP) [2], 101000 ± 27600 pM at OsNAT9 (OsNAT9-GFP) [3] and 550 ± 530 pM at OsNAT9 (OsNAT9-GFP) [4].

Turning to `O=c1[nH]c(=O)c2[nH]cnc2[nH]1` [xanthine], on OsNAT9 (OsNAT9-GFP) [2], the dissociation constant (Kd) worked out at 390 ± 110 pM.
